Consider three compounds from US7566808B2, “Management of ophthalmologic disorders, including macular degeneration” (President and Fellows of Harvard College, priority 2004, dated 2009).

Common to all, as to assay type: in vivo
Data set [1] deals with Balb/c mice. The data set is described as follows: 11-cis-retinal regeneration after bleaching in mice. As for the experimental part: Animal Studies: Protocols were approved by the Standing Committee on Animal Care of Harvard Medical School, the Institutional Animal Care and Use Committee of Columbia University and complied with guidelines set forth by The Association for Research in Vision and Ophthalmology. 7 week old male Balb/c albino mice and 7 week old male Sprague-Dawley rats were from Charles River Breeding Laboratories and were housed in 12:12 h light:dark cycle. 8-10 week old Abcr null mutant mice (129/SV×C57BL/6J) were generated as formerly described (12,20) and Abcr^−/− and Abcr^+/+ mice were raised under 12-hour on-off cyclic lighting with an in-cage illuminance of 30-50 lux. In Abcr^−/− and Abcr^+/+ mice, Rpe65 was 9 sequenced as reported previously.
Similar experiments with inhibitors were also performed in Balb/c mice. Here again inhibition is observed, but the effects are less pronounced than in rats, both with 13-RA and the isoprenoid antagonists. The inhibition values are as follows: 13-RA (33±4%), TDT (35±2%), and TDH (24±6%). It is noteworthy that in rats the 11-cis chromophore is regenerated considerably more slowly than in mice.

The nature of data set [2]: Tolerability in treated animals. Particulars: even when administered every 48 h. The text has this: With respect to the pharmacology of the isoprenoid mRPE65 antagonists, it should be noted that the effects of both TDT and TDH are substantially more persistent than with 13-RA, probably because they are more hydrophobic than the retinoic acids. An increase in hydrophobicity tends to slow down rates of elimination of drugs.

Data set [3] relates to Abca4+/+ (Rpe65 450Leu, pigmented, 129/SV×C57BL/6J) mice. Briefly: ERG rod b-wave amplitude recovery after photo-bleaching. To be noted: 50 mg/kg i.p., 3 days after treatment. As for the experimental part:
Electroretinogram Determinations (ERG): Mice were dark-adapted overnight before all ERG experiments. To determine the acute effect of compounds under study, mice were given a single i.p. injection of […] Control (“untreated”) animals were injected with 25 uL of DMSO. Mice were anaesthetized with ketamine (80 mg/kg) and xylazine (5-10 mg/kg) and pupils were dilated with 1% phenylephrine and 1% cyclopentolate, followed by an exposure to 5000 lux bleaching light for 2 min.
The ERG was recorded from the cornea with a cotton wick saline electrodes for about 50 min immediately after bleaching. Subcutaneous 30 gauge needles on the forehead and trunk were used as reference and ground electrodes, respectively. The animals rested on a heater maintaining the body temperature at 37° C. The light stimulus was obtained from a ganzfeld stimulator having a stroboscope (PS33 Grass Instruments Inc., West Warwick, R.I.) removed from its housing and recessed above and behind the head of the mouse. The flash was diffused to cover the ganzfeld homogeneously. Maximum flash intensity was measured with a calibrated light meter (J16 Tektronics Instruments, Beaverton, Oreg.). Responses were averaged by a Macintosh computer-controlled data acquisition system (PowerLab, AD Instruments, Mountain View, Calif.) at a frequency of 0.1 Hz. […]
The same animals were subjected to ERG experiments according to exactly the same protocol 3 days later, except no (repeated) injection of compounds was performed.
Acute effects: In order to determine whether TDT and TDH have an effect on the visual cycle in vivo, the overnight dark-adapted Abca4^+/+ (Rpe65 450Leu, pigmented, 129/SV×C57BL/6J) mice received single (i.p.) injections of the two compounds at 50 mg/kg. […]
Results are averaged from three mice in each group with SD bars shown. Both isoprenoids delayed the recovery of dark-adapted visual responses to an extent similar to that of 13-RA as judged from dark-adapted ERG b-wave amplitudes recorded using dim light flashes delivered immediately before and at regular intervals after photo-bleaching.

Data set [4] has as its system Sprague Dawley rats. The data set is described as follows: 11-cis-retinal regeneration after bleaching in rats. Particulars: for average inhibition of 11-cis-retinal regeneration: 50 mg/kg i.p. single injection, rats. The procedure:
To establish whether recovery of the dark-adapted rod b-wave was retarded because of an effect on 11-cis-retinal synthesis we studied the effects of TDT on 11-cis-retinal regeneration in rats and mice. The 11-cis-retinal that is regenerated is essentially all bound to rhodopsin in rodents, so that measuring its level is equivalent to measuring the rhodopsin content. Initial experiments were performed on Sprague Dawley rats because similar experiments using 13-RA were previously carried out using these animals so that ready comparisons of potency and effectiveness can be made. […] Accordingly, in the current experiments, the rats were given single injections (i.p.) of TDT (TDH) (50 mg/kg in DMSO), 13-RA (50 mg/kg in DMSO), and DMSO alone. After injecting the analogs, the rats were dark adapted for 2 h, and then exposed to light that led to <10% of dark adapted 11-cis-retinal in these animals, compared to dark adapted controls (data not shown). After allowing the bleached rats to dark-adapt again for 30 min, the animals were sacrificed, and the regenerated 11-cis-retinal was determined as indicated in Methods. In these experiments, the amount of resynthesized 11-cis-retinal, the chromophore of rhodopsin, is measured by HPLC and compared to the amounts of all-trans-retinyl ester precursor.
These figures show results of HPLC analysis of extracted retinoids from drug treated rats. […] In FIG. 28A, the relative amounts of 11-cis-retinal-syn-oxime and all-trans-(cis)-retinyl esters are shown for the control (−13-RA) (top) and drug treated animals (bottom). In FIG. 28B, the corresponding data are shown for the TDT treated rats (top-control, bottom TDT treated). In this case, the ester pool in the drug treated rat is largely, if not exclusively, all-trans. […] Upon repetition of the experiments two further times the average inhibition values are as follows: 13-RA (78±2%), TDT (79±4%), and TDH (55±2%). These percent inhibition values are generated by comparing the integrated areas under the retinyl ester and 11-cis-retinal-syn-oxime peaks. (Materials and Methods).

Turning to `CCCCCCCCCCCCCCCCNC(=O)/C=C(\C)CC/C=C(\C)CCC=C(C)C` [TDH, 3,7,11-Trimethyl-dodeca-2,6,10-trienoic acid hexadecylamide], the “inhibition of 11-cis-retinal regeneration” value in data set [1] is recorded as 24±6%. Besides, in data set [2], the “tolerability / signs of toxicity” value was “no obvious signs of toxicity and/or distress”. In data set [3], the “effect on rod b-wave recovery” value is on record as “substantial effect”. In data set [4], the “average inhibition of 11-cis-retinal regeneration” value (shortened to “average inhibition”) is given as 55±2%. Also, the “inhibitory effect on 11-cis-retinal regeneration” value in data set [4] (50 mg/kg i.p., FIG. 28C) was “less pronounced than with TDT”.
Turning to `CCCCCCCCCCC(=O)/C=C(\C)CC/C=C(\C)CCC=C(C)C` [TDT, 13,17,21-Trimethyl-docosa-12,16,20-trien-11-one], the “inhibition of 11-cis-retinal regeneration” value in data set [1] came out at 35±2%. Further, in data set [2], the “tolerability / signs of toxicity” value was “no obvious signs of toxicity and/or distress”. Further, in data set [3], the “effect on rod b-wave recovery” value is “substantial effect”. Besides, in data set [4], the “average inhibition” value worked out at 79±4%.
For `CC1=C(/C=C/C(C)=C/C=C/C(C)=C\C(=O)O)C(C)(C)CCC1` [13-cis-retinoic acid, reference compound], the “inhibition of 11-cis-retinal regeneration” value in data set [1] was determined as 33±4%. The “effect on rod b-wave recovery” value in data set [3] was “no sustained effect”. Moreover, the “average inhibition” value in data set [4] was 78±2%.
